Laboratory results as given in PubChem BioAssay AID330 (DTP/NCI, 2004).
Several values for one entry are separate records, joined by “and”; a condition that tells them apart may be missing. Identical values can stand only once. Inconclusive results and toxic doses are left out. The calls were made as follows: active = survival T/C of 150% or more; inactive = T/C below 125% in these data.

Test system: P388 leukemia ip, CD2F1 mice, survival T/C
Assay: NCI In Vivo Anticancer Drug Screen. Data for tumor model P388 Leukemia (intraperitoneal) in CD2F1 (CDF1) mice
Conditions: endpoint: median survival time, higher = longer survival
In short: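 Mice carrying the transplanted tumor received test compound or vehicle. Survival was recorded in each group, and the value is the treated-group measurement divided by that of the vehicle-treated control group.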

[1] = dose: 50.0 mg/kg/injection, schedule: Q01DX009 (ip), vehicle: saline with Tween-80
[2] = dose: 100.0 mg/kg/injection, schedule: Q01DX009 (ip), vehicle: saline with Tween-80
[3] = dose: 200.0 mg/kg/injection, schedule: Q01DX009 (ip), vehicle: saline with Tween-80
[4] = dose: 100.0 mg/kg/injection, schedule: Q01DX001 (ip), vehicle: saline
[5] = dose: 200.0 mg/kg/injection, schedule: Q01DX001 (ip), vehicle: saline
[6] = dose: 400.0 mg/kg/injection, schedule: Q01DX001 (ip), vehicle: saline
[7] = dose: 60.0 mg/kg/injection, schedule: Q01DX005 (ip), vehicle: saline with Tween-80
[8] = dose: 120.0 mg/kg/injection, schedule: Q01DX005 (ip), vehicle: saline with Tween-80
[9] = dose: 100.0 mg/kg/injection, schedule: Q01DX001 (ip), vehicle: Klucel (hydroxypropylcellulose) (HPC)
[10] = dose: 200.0 mg/kg/injection, schedule: Q01DX001 (ip), vehicle: Klucel (hydroxypropylcellulose) (HPC)
[11] = dose: 400.0 mg/kg/injection, schedule: Q01DX001 (ip), vehicle: Klucel (hydroxypropylcellulose) (HPC)
[12] = dose: 60.0 mg/kg/injection, schedule: Q01DX005 (ip), vehicle: saline
[13] = dose: 120.0 mg/kg/injection, schedule: Q01DX005 (ip), vehicle: saline
[14] = dose: 240.0 mg/kg/injection, schedule: Q01DX005 (ip), vehicle: saline

Measured: T/C

O=C([O-])CN(CCN(CC(=O)[O-])CC(=O)O)CC(=O)O.[Fe+5].[Na+]
inactive: [1] 91 % of control | [2] 91 % of control | dose: 100.0 mg/kg/injection, schedule: Q04DX003 (ip), vehicle: saline sonified 86 % of control | [3] 91 % of control | dose: 200.0 mg/kg/injection, schedule: Q04DX003 (ip), vehicle: saline sonified 90 % of control

COc1ccc(S(=O)(=O)c2cnc(N/N=C/c3ccc([N+](=O)[O-])o3)nc2N)cc1
inactive: [4] 93 % of control | [5] 90 % of control | [6] 90 % of control

c1ccc(C2OCCN2c2ccccc2)cc1 (stereo unspecified)
inactive: dose: 12.5 mg/kg/injection, schedule: Q01DX001 (ip), vehicle: saline with Tween-80 107 % of control | dose: 25.0 mg/kg/injection, schedule: Q01DX001 (ip), vehicle: saline with Tween-80 107 % of control | dose: 50.0 mg/kg/injection, schedule: Q01DX001 (ip), vehicle: saline with Tween-80 107 % of control | dose: 100.0 mg/kg/injection, schedule: Q01DX001 (ip), vehicle: saline with Tween-80 101 % of control

CCN(Cc1ccc(C(=O)OC)cc1)c1cccc(NC(C)=O)c1
inactive: [1] 98 % of control | [2] 100 % of control | [3] 99 % of control

CCc1cccc(CC)c1NC(=O)NN(CC)CC
inactive: [7] 93 % of control | [8] 103 % of control

O=C(/C=C\N(c1ccccc1)c1ccccc1)c1ccccc1
inactive: [1] 90 % of control | [2] 93 % of control | [3] 94 % of control

CC(C)N1C(=O)c2ccccc2S12c1ccccc1C(=O)N2C(C)C
inactive: dose: 100.0 mg/kg/injection, schedule: Q04DX003 (ip), vehicle: Klucel (hydroxypropylcellulose) (HPC) 93 % of control | dose: 200.0 mg/kg/injection, schedule: Q04DX003 (ip), vehicle: Klucel (hydroxypropylcellulose) (HPC) 90 % of control | dose: 400.0 mg/kg/injection, schedule: Q04DX003 (ip), vehicle: Klucel (hydroxypropylcellulose) (HPC) 90 % of control

CCOC(=O)/C=C1\CCCn2c1ncc(C(=O)OCC)c2=O
inactive: dose: 60.0 mg/kg/injection, schedule: Q01DX005 (ip), vehicle: Klucel (hydroxypropylcellulose) (HPC) 101 % of control | dose: 120.0 mg/kg/injection, schedule: Q01DX005 (ip), vehicle: Klucel (hydroxypropylcellulose) (HPC) 100 % of control | dose: 240.0 mg/kg/injection, schedule: Q01DX005 (ip), vehicle: Klucel (hydroxypropylcellulose) (HPC) 108 % of control

COC(=O)C1(C)CCCC2(C)c3cc(OC)ccc3C(=O)C(Br)C12 (stereo unspecified)
inactive: [1] 103 % of control | [2] 100 % of control | [3] 112 % of control

CCOC(=O)CCC(NC(=O)c1ccc(NS(=O)(=O)c2ccc(C)cc2)cc1)C(=O)OCC (stereo unspecified)
inactive: dose: 3.13 mg/kg/injection, schedule: Q01DX009 (ip), vehicle: saline with Tween-80 93 % of control | dose: 6.25 mg/kg/injection, schedule: Q01DX009 (ip), vehicle: saline with Tween-80 93 % of control | dose: 12.5 mg/kg/injection, schedule: Q01DX009 (ip), vehicle: saline with Tween-80 86 % of control | [1] 110 % of control | [2] 100 % of control | [3] 99 % of control | dose: 400.0 mg/kg/injection, schedule: Q01DX009 (ip), vehicle: saline with Tween-80 99 % of control

CN1C(C)(C)CC(O)(C#N)CC1(C)C
inactive: dose: 50.0 mg/kg/injection, schedule: Q01DX005 (ip), vehicle: saline 100 % of control | dose: 100.0 mg/kg/injection, schedule: Q01DX005 (ip), vehicle: saline 98 % of control | dose: 200.0 mg/kg/injection, schedule: Q01DX005 (ip), vehicle: saline 103 % of control

c1ccc(-c2cn3c(n2)SCC3)cc1
inactive: [9] 106 % of control | [10] 106 % of control | [11] 111 % of control

CS(=O)(=O)C(c1nc2nnc(N)n2[nH]c1=O)c1nc2nnc(N)n2[nH]c1=O
inactive: [12] 99 % of control | [13] 105 % of control | [14] 105 % of control

O=C1C(c2ccccc2)=C(c2ccccc2)/C1=C/c1ccc(Cl)cc1
inactive: [9] 101 % of control | [10] 105 % of control | [11] 104 % of control

COC(=O)C1(CC(=O)c2ccc(F)cc2)NC(=S)NC(=O)C1C#N (stereo unspecified)
inactive: [7] 99 % of control | [8] 98 % of control | dose: 240.0 mg/kg/injection, schedule: Q01DX005 (ip), vehicle: saline with Tween-80 106 % of control

COc1ccc(CCNC(=O)c2c3nc4c(C(=O)NCCc5ccc(OC)cc5)ccc(C)c4oc-3c(C)c(=O)c2N)cc1
inactive: dose: 50.0 mg/kg/injection, schedule: Q04DX003 (ip), vehicle: DMSO 98 % of control | dose: 100.0 mg/kg/injection, schedule: Q04DX003 (ip), vehicle: DMSO 100 % of control | dose: 200.0 mg/kg/injection, schedule: Q04DX003 (ip), vehicle: DMSO 98 % of control

CN(C)CC(CN(C)C)C(=O)C(C)(C)C
inactive: dose: 3.8 mg/kg/injection, schedule: Q01DX005 (ip), vehicle: saline 99 % of control | dose: 7.5 mg/kg/injection, schedule: Q01DX005 (ip), vehicle: saline 96 % of control | dose: 15.0 mg/kg/injection, schedule: Q01DX005 (ip), vehicle: saline 93 % of control | dose: 30.0 mg/kg/injection, schedule: Q01DX005 (ip), vehicle: saline 105 % of control | [12] 100 % of control and 104 % of control | [13] 104 % of control and 110 % of control

F[C](F)(F)[Hg][Br]
inactive: dose: 6.25 mg/kg/injection, schedule: Q04DX002 (ip), vehicle: saline 100 % of control | dose: 12.5 mg/kg/injection, schedule: Q04DX002 (ip), vehicle: saline 92 % of control | dose: 25.0 mg/kg/injection, schedule: Q04DX002 (ip), vehicle: saline 106 % of control

CC(C)CCC[C@@H](C)[C@H]1CC[C@H]2[C@@H]3CC[C@H]4C[C@H](N)CC[C@]4(C)[C@H]3CC[C@]12C
inactive: dose: 12.5 mg/kg/injection, schedule: Q01DX005 (ip), vehicle: Klucel (hydroxypropylcellulose) (HPC) 100 % of control | dose: 25.0 mg/kg/injection, schedule: Q01DX005 (ip), vehicle: Klucel (hydroxypropylcellulose) (HPC) 93 % of control | dose: 50.0 mg/kg/injection, schedule: Q01DX005 (ip), vehicle: Klucel (hydroxypropylcellulose) (HPC) 112 % of control and 97 % of control

COC(=N)C1=CC(C)(C)N(O)C1(C)C
inactive: [4] 96 % of control | [5] 102 % of control | [6] 98 % of control

O=C(c1ccco1)N1CCN(C(=O)c2ccco2)CC1
inactive: dose: 50.0 mg/kg/injection, schedule: Q01DX005 (ip), vehicle: saline with Tween-80 104 % of control | dose: 100.0 mg/kg/injection, schedule: Q01DX005 (ip), vehicle: saline with Tween-80 96 % of control | dose: 200.0 mg/kg/injection, schedule: Q01DX005 (ip), vehicle: saline with Tween-80 100 % of control

CCS(=O)O
inactive: [12] 106 % of control | [13] 112 % of control | [14] 112 % of control

CCCCCCCCCC[N+]1(CC)CCCC1
inactive: dose: 3.12 mg/kg/injection, schedule: Q01DX009 (ip), vehicle: saline 104 % of control | dose: 6.25 mg/kg/injection, schedule: Q01DX009 (ip), vehicle: saline 100 % of control

O=S1(=O)N=C([O-])c2ccc(C[N+]3(CCCl)CCN(CCCl)CC3)cc21
inactive: dose: 12.5 mg/kg/injection, schedule: Q01DX009 (ip), vehicle: DMSO 87 % of control | dose: 25.0 mg/kg/injection, schedule: Q01DX009 (ip), vehicle: DMSO 105 % of control | dose: 50.0 mg/kg/injection, schedule: Q01DX009 (ip), vehicle: DMSO 87 % of control | dose: 100.0 mg/kg/injection, schedule: Q01DX009 (ip), vehicle: DMSO 115 % of control
